Usually EC50 stands for the concentration at which the effect is half-maximal. In general, IC50 refers to the concentration needed to halve the response being measured. Low values mean inhibition by little substance, high ones a need for much substance.

Experimental findings from patent publication US10336762B2 (priority 2017, dated 2019) are described below.

Where only a bound is given, the exact number is not on record here.

In assay [1] the test system is TNFα. The assay is described as follows: cells. It counts as cell-based, human. To be noted: Homo sapiens, Monocyte, LPS-stimulated human monocytes, TNFα by TR-FRET; read-out: EC50 TNF. In general terms: TR-FRET usually uses a lanthanide donor and a delayed reading to cut background.
Assay [2] concerns the target IRAK4 enzyme (Homo sapiens (Human), UniProt Q9NWZ3). Briefly: biochemical. As to conditions: IRAK4 enzyme, TR-FRET, 500 μM ATP. It counts as biochemical.

IRAK4 enzyme, sequence (Q9NWZ3 whole entry): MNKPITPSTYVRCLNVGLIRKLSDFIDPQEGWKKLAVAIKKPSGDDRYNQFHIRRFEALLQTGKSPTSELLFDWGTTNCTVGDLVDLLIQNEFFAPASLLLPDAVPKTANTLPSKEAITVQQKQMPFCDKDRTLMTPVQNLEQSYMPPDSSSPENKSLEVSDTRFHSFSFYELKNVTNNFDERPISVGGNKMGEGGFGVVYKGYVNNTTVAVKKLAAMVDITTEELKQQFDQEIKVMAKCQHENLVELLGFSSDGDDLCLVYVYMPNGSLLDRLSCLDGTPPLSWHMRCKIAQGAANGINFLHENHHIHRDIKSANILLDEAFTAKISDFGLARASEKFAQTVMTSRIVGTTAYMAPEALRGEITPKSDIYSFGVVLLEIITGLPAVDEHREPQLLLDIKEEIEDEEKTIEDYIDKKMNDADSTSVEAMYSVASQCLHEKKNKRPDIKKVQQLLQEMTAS

For `CC(C)(O)[C@H](F)CNC(=O)c1cnc(-c2ccc3cc(C#N)cnn23)cc1N[C@H]1C[C@H](CNS(C)(=O)=O)C1` [Example 831, 6-(3-cyanopyrrolo[1,2-b]pyridazin-7-yl)-N-((R)-2-fluoro-3-hydroxy-3-methylbutyl)-4-(((1r,3R)-3-(methylsulfonamido-methyl)cyclobutyl)amino)nicotinamide], the EC50 in assay [1] came out at 0.049 µM. The molecule further displayed an IC50 in assay [2] of less than 0.001 µM.
On to `CC(C)(O)[C@H](F)CNC(=O)c1cnc(-c2ccc3cc(C#N)cnn23)cc1NC1CCC2(CCC(=O)N2)CC1` (stereo partly drawn) [Example 832, 6-(3-cyanopyrrolo[1,2-b]pyridazin-7-yl)-N-((R)-2-fluoro-3-hydroxy-3-methylbutyl)-4-(((5R,8r)-2-oxo-1-azaspiro[4.5]decan-8-yl)amino) nicotinamide], for which the EC50 in assay [1] worked out at 0.132 µM. This molecule also gave an IC50 in assay [2] of 0.001 µM.
Regarding `CC(C)(O)[C@H](F)CNC(=O)c1cnc(-c2ccc3cc(C#N)cnn23)cc1NC12CC(CNC(=O)C3CC3(F)F)(C1)C2` (stereo partly drawn) [Example 833, 6-(3-cyanopyrrolo[1,2-b]pyridazin-7-yl)-4-((3-(((R)-2,2-difluorocyclo-propane-1-carboxamido)methyl)bicyclo[1.1.1]pentan-1-yl)amino)-N-((R)-2-fluoro-3-hydroxy-3-methylbutyl)nicotinamide], in assay [1], the EC50 was determined as 0.192 µM. The same molecule had a concentration for half-maximal inhibition (IC50) in assay [2] of 0.001 µM.
For `COC(=O)NCc1ccc(Nc2cc(-c3ccc4cc(C#N)cnn34)ncc2C(=O)NC[C@@H](F)C(C)(C)O)cc1F` [Example 834, (R)-methyl (4-((2-(3-cyano-pyrrolo[1,2-b]pyridazin-7-yl)-5-((2-fluoro-3-hydroxy-3-methylbutyl)carbamoyl)pyridin-4-yl)amino)-2-fluorobenzyl)carbamate], in that order: 0.023 µM and less than 0.001 µM.
As for `CCOc1cncc(Nc2cc(-c3ccc4cc(C#N)cnn34)ncc2C(=O)NC[C@@H](F)C(C)(C)O)c1` [Example 835, (R)-6-(3-cyanopyrrolo[1,2-b]pyridazin-7-yl)-4-((5-ethoxypyridin-3-yl)amino)-N-(2-fluoro-3-hydroxy-3-methylbutyl)nicotinamide], the EC50 in assay [1] turned out to be 0.008 µM. Moreover, the half-inhibitory concentration (IC50) in assay [2] is less than 0.001 µM.
On to `CCOc1cccc(Nc2cc(-c3ccc4cc(C#N)cnn34)ncc2C(=O)NC[C@@H](F)C(C)(C)O)c1` [Example 836, (R)-6-(3-cyanopyrrolo[1,2-b]pyridazin-7-yl)-4-((3-ethoxyphenyl)amino)-N-(2-fluoro-3-hydroxy-3-methylbutyl)nicotinamide], for which the EC50 in assay [1] was determined as 0.043 µM. Moreover, in assay [2], the IC50 was 0.002 µM.
For `CC(C)Oc1cccc(Nc2cc(-c3ccc4cc(C#N)cnn34)ncc2C(=O)NC[C@@H](F)C(C)(C)O)c1` [Example 837, (R)-6-(3-cyanopyrrolo[1,2-b]pyridazin-7-yl)-N-(2-fluoro-3-hydroxy-3-methylbutyl)-4-((3-isopropoxyphenyl)amino)nicotinamide], in that order: 0.117 µM and 0.003 µM.
For `CC(C)Cc1cccc(Nc2cc(-c3ccc4cc(C#N)cnn34)ncc2C(=O)NC[C@@H](F)C(C)(C)O)c1` [Example 838, (R)-6-(3-cyanopyrrolo[1,2-b]pyridazin-7-yl)-N-(2-fluoro-3-hydroxy-3-methylbutyl)-4-((3-isobutylphenyl)amino) nicotinamide], in that order: more than 10 µM and 0.057 µM.
For `CCC(=O)c1cccc(Nc2cc(-c3ccc4cc(C#N)cnn34)ncc2C(=O)NC[C@@H](F)C(C)(C)O)c1` [Example 839, (R)-6-(3-cyanopyrrolo[1,2-b]pyridazin-7-yl)-N-(2-fluoro-3-hydroxy-3-methylbutyl)-4-((3-propionylphenyl)amino) nicotinamide], in that order: 0.307 µM and 0.001 µM.
For the molecule `COc1cnc(Nc2cc(-c3ccc4cc(C#N)cnn34)ncc2C(=O)NC[C@@H](F)C(C)(C)O)cn1` [Example 840, (R)-6-(3-cyanopyrrolo[1,2-b]pyridazin-7-yl)-N-(2-fluoro-3-hydroxy-3-methylbutyl)-4-((5-methoxypyrazin-2-yl)amino)nicotinamide], the half-maximal effective concentration (EC50) in assay [1] came to 0.017 µM. This molecule yielded an IC50 in assay [2] of less than 0.001 µM.
For `CCOc1cnc(Nc2cc(-c3ccc4cc(C#N)cnn34)ncc2C(=O)NC[C@@H](F)C(C)(C)O)cn1` [Example 841, (R)-6-(3-cyanopyrrolo[1,2-b]pyridazin-7-yl)-4-((5-ethoxypyrazin-2-yl)amino)-N-(2-fluoro-3-hydroxy-3-methylbutyl)nicotinamide] the same measures were 0.029 µM and less than 0.001 µM.
For the molecule `COc1cncc(Nc2cc(-c3ccc4cc(C#N)cnn34)ncc2C(=O)NC[C@@H](F)C(C)(C)O)n1` [Example 842, (R)-6-(3-cyanopyrrolo[1,2-b]pyridazin-7-yl)-N-(2-fluoro-3-hydroxy-3-methylbutyl)-4-((6-methoxypyrazin-2-yl)amino)nicotinamide], in assay [1], the EC50 was determined as 0.042 µM. The molecule further gave a 50% inhibitory concentration (IC50) in assay [2] of less than 0.001 µM.
For `CCCc1nccc(Nc2cc(-c3ccc4cc(C#N)cnn34)ncc2C(=O)NC[C@@H](F)C(C)(C)O)n1` [Example 843, (R)-6-(3-cyanopyrrolo[1,2-b]pyridazin-7-yl)-N-(2-fluoro-3-hydroxy-3-methylbutyl)-4-((2-propyl-pyrimidin-4-yl)amino)nicotinamide], in that order: 0.137 µM and 0.001 µM.
For `COc1nccc(Nc2cc(-c3ccc4cc(C#N)cnn34)ncc2C(=O)NC[C@@H](F)C(C)(C)O)n1` [Example 844, (R)-6-(3-cyanopyrrolo[1,2-b]pyridazin-7-yl)-N-(2-fluoro-3-hydroxy-3-methylbutyl)-4-((2-methoxypyrimidin-4-yl)amino)nicotinamide] the same measures were 0.07 µM and 0.001 µM.
For `CCOc1cncc(Nc2cc(-c3ccc4cc(C#N)cnn34)ncc2C(=O)NC[C@@H](F)C(C)(C)O)n1` [Example 845, (R)-6-(3-cyanopyrrolo[1,2-b]pyridazin-7-yl)-4-((6-ethoxypyrazin-2-yl)amino)-N-(2-fluoro-3-hydroxy-3-methylbutyl)nicotinamide], in that order: more than 10 µM and less than 0.001 µM.
Take `COc1cc(Nc2cc(-c3ccc4cc(C#N)cnn34)ncc2C(=O)NC[C@@H](F)C(C)(C)O)ncn1` [Example 846, (R)-6-(3-cyanopyrrolo[1,2-b]pyridazin-7-yl)-N-(2-fluoro-3-hydroxy-3-methylbutyl)-4-((6-methoxy-pyrimidin-4-yl)amino) nicotinamide]: the EC50 in assay [1] stood at 0.097 µM. It took 0.002 µM to reach half-maximal inhibition in assay [2] (IC50).
For `CCOc1cc(Nc2cc(-c3ccc4cc(C#N)cnn34)ncc2C(=O)NC[C@@H](F)C(C)(C)O)ccn1` [Example 847, (R)-6-(3-cyanopyrrolo[1,2-b]pyridazin-7-yl)-4-((2-ethoxypyridin-4-yl)amino)-N-(2-fluoro-3-hydroxy-3-methylbutyl)nicotinamide] the same measures were 0.069 µM and less than 0.001 µM.
For `CCOc1nccc(Nc2cc(-c3ccc4cc(C#N)cnn34)ncc2C(=O)NC[C@@H](F)C(C)(C)O)n1` [Example 848, (R)-6-(3-cyanopyrrolo[1,2-b]pyridazin-7-yl)-4-((2-ethoxypyrimidin-4-yl)amino)-N-(2-fluoro-3-hydroxy-3-methylbutyl) nicotinamide], in that order: 0.112 µM and 0.002 µM.
